This assay deals with Jack bean urease (Canavalia ensiformis, UniProt P07374). The experiment in a line: Jack bean urease inhibition. Type of assay: biochemical.
Where [1] appears, read: read-out: IC50 ± SEM, Table 2, derivatives 6a-6f, triplicate.
Setting [2] is: IC50 ± SEM, Table 1, derivatives 3a-3f, triplicate.
The mark [3] stands for this setting: urease inhibition IC50, values in the abstract.

The structures appear in SMILES notation. Entries after “also recorded” stand apart in the source; their conditions may differ. Read-outs that look alike come from different tables or passages of the source.

Chain of Jack bean urease (P07374 whole entry, looked up): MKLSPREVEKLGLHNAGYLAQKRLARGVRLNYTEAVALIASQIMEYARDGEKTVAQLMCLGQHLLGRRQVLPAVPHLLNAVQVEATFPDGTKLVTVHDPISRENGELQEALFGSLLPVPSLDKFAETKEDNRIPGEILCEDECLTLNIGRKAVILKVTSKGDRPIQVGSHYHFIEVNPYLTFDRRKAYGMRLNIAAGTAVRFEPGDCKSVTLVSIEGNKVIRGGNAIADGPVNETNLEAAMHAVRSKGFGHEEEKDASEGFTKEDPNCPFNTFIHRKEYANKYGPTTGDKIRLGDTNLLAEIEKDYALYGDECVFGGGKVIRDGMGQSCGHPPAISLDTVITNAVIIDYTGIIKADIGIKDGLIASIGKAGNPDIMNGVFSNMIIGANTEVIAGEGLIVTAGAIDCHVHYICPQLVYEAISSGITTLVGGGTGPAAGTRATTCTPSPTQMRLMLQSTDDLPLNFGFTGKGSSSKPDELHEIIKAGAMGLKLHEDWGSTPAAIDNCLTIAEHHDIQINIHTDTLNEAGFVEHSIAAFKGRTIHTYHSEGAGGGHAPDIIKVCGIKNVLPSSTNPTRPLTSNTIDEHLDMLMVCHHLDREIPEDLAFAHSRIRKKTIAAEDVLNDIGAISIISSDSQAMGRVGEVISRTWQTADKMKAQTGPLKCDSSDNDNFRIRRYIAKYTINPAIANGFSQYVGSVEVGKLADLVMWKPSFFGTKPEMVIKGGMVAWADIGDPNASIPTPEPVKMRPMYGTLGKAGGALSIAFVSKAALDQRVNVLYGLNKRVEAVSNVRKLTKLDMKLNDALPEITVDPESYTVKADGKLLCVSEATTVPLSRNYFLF

The IC50 is the concentration that inhibits the measured activity by half. Turning to `COc1ccc2cc(C(C)n3cnc4ccccc43)ccc2c1` (racemic) [6a], under setting [1], the IC50 came to 38 ± 1.3 µM.
Same read-out and setting: to `COc1ccc2cc(C(C)c3nc4ccc(Cl)cc4[nH]3)ccc2c1` (racemic) [6b, (±)-6-chloro-2-((R)-1-(2-methoxynaphthalen-6-yl)ethyl)-1H-benzo[d]imidazol] belongs 36 ± 1.7 µM; to `COc1ccc2cc(C(C)c3nc4ccc(Br)cc4[nH]3)ccc2c1` (racemic) [6c, (±)-6-bromo-2-((R)-1-(2-methoxynaphthalen-6-yl)ethyl)-1H-benzo[d]imidazol], 51 ± 9.3 µM; to `COc1ccc2cc(C(C)c3nc4ccc(C)cc4[nH]3)ccc2c1` (racemic) [6e, (±)-6-methyl-2-((R)-1-(2-methoxynaphthalen-6-yl)ethyl)-1H-benzo[d] imidazol], 44 ± 2.4 µM.
In the case of `COc1ccc2cc(C(C)n3cnc4ccccc43)ccc2c1` (racemic) [6f], the IC50 under setting [1] is 39 ± 2.4 µM.
Turning to `COc1ccc2cc(C(C)c3nc4ccc([N+](=O)[O-])cc4[nH]3)ccc2c1` (racemic) [compound 6d, (±)-6-Nitro-2-((R)-1-(2-methoxynaphthalen-6-yl)ethyl)-1H-benzo[d]imidazol], the “urease inhibition, result in words” value is on record as “not showing significant urease inhibition”. For the same compound, the IC50 under setting [1] amounted to 99 ± 9.4 µM.
Consider `CC(O)c1nc2ccccc2[nH]1` (single isomer, unassigned) [compound 3a, (R or S)-1-(1H-benzo[d]imidazol-2-yl)ethanol], for which the “urease inhibition, result in words” value is recorded as “significant urease inhibition; also recorded: good enzyme inhibitory activity; also recorded: most potent”. The compound also came in with an IC50 under setting [2] of 22 ± 6.2 µM. This compound returned an IC50 under setting [3] of 22.3 ± 6.2 µM.
For `CC(O)c1nc2ccccc2[nH]1` (single isomer, unassigned) [compound 3f, (R or S)-1-(1H-benzo[d]imidazol-2-yl)ethanol] the same measures were “significant urease inhibition; also recorded: good enzyme inhibitory activity; also recorded: most potent”, 31 ± 23.3 µM and 31.4 ± 23.3 µM.
Regarding `NC(N)=S` [thiourea, reference compound], the IC50 (read-out: IC50 of reference thiourea, standard inhibitor) worked out at 20.9 µM.

Source of the values: article PMC7567930 (Heliyon, 2020).
